From the supplement of paper PMC8882468

How the values were obtained:
Experiment in all cases: CTG-3D luminescence at 96 h relative to day-0 seeding control (ratio to day 0); higher = more growth / less cytotoxicity; PDxO 3D drug screen, 96 h, CTG-3D normalised to day-0 seeding control.
[1] = system: HCI-001 (organoid from a triple-negative breast cancer xenograft)
[2] = system: HCI-002 (organoid from a triple-negative breast cancer xenograft)
[3] = system: HCI-017.E2 (organoid from an ER-positive breast cancer xenograft)
[4] = system: HCI-023 (organoid from a triple-negative breast cancer xenograft)
[5] = system: MDA-MB-231

O=C(O)C1(C(=O)O)CCC1.[NH2-].[NH2-].[Pt+2] [carboplatin]
CTG-3D luminescence at 96 h
Conditions	12.5 pM	0.00025 µM	0.005 µM	0.1 µM	1 µM	10 µM	100 µM	625 fM
[1], days in culture: 240	1.59	1.15	0.945	1.27	1.63	1.29	0.471	1.36
[1], days in culture: 260	1.71	0.978	2.01	1.09	1.41	1.48	0.569	0.928
[1], days in culture: 269	1.59	1.61	1.58	1.8	1.83	2.14	0.918	1.75
[1], days in culture: 327	1.5	1.43	2.04	1.74	1.53	1.15	0.592	1.83
[1], days in culture: 346	1.42	1.53	1.03	1.02	1.47	1.47	1.01	1.35
[1], days in culture: 364	1.45	1.09	1.54	0.839	1.01	1.56	0.829	1.51
[2], days in culture: 62	3.04	2.34	2.63	2.61	2.45	2.29	0.71	2.9
[2], days in culture: 82	2.75	3.03	1.99	2.54	2.26	1.82	0.726	2.68
[2], days in culture: 91	4.49	3.72	3.53	3.87	3.9	3.69	0.992	4.08
[2], days in culture: 191	2.54	2.62	2.4	2.78	2.89	1.86	0.967	2.4
[2], days in culture: 209	2.4	2.34	2.11	2.07	2.18	1.69	0.74	2.38
[2], days in culture: 227	5.92	5.72	5.38	6.29	5.74	5.68	1.18	6.2
[3], days in culture: 85	2.99	2.47	2.94	2.35	2.71	2.18	2.37	2.62
[4], days in culture: 111	1.4	1.31	1.12	1.33	0.977	1.03	0.106	1.16
[4], days in culture: 128	1.28	1.47	1.23	1.6	1.16	1.35	0.0724	1.57

CTG-3D luminescence at 96 h
Conditions	12.5 pM	0.00025 µM	0.005 µM	0.1 µM	1 µM	10 µM	100 µM	625 fM
[3]	1.88	2.076	2.32	2.4	2.25	2.08	1.9	1.97
[5]	4.49	4.27	4.51	4.46	4.4	4.16	3.05	4.47

C[C@H](NC(=O)CCC(F)(F)F)C(=O)N[C@@H]1C(=O)N(CCO)c2ncccc2-c2ccccc21 [crenigacestat]
CTG-3D luminescence at 96 h
Conditions	12.5 pM	0.00025 µM	0.005 µM	0.1 µM	1 µM	10 µM	100 µM	625 fM
[1], days in culture: 240	1.25	1.04	1.03	0.845	1.36	1.2	1.45	0.941
[1], days in culture: 260	2.03	0.875	1.52	1.34	1.54	1.84	1.12	1.44
[1], days in culture: 269	1.62	1.6	1.37	1.29	1.39	2.1	2	1.33
[1], days in culture: 327	1.46	1.4	1.63	1.87	1.24	1.06	1.64	1.76
[1], days in culture: 346	1.3	1.2	1.1	1.08	1.32	1.35	1.76	1.11
[1], days in culture: 364	1.4	1.08	1.35	1	1.1	1.27	1.1	1.43
[2], days in culture: 62	2.87	2.47	2.56	2.68	2.3	2.72	2.8	2.91
[2], days in culture: 82	3.27	3.18	2.46	2.78	2.76	2.69	2.21	2.76
[2], days in culture: 91	3.89	3.6	2.93	3.44	3.36	3.56	2.88	3.82
[2], days in culture: 191	2.59	2.32	2.2	2.19	2.46	2.35	2.4	2.36
[2], days in culture: 209	2.47	2.47	2.22	1.91	2.27	1.93	2.41	2.29
[2], days in culture: 227	5.37	5.77	5.03	5.6	4.74	4.97	3.7	4.95
[3], days in culture: 85	2.43	2.96	2.49	2.05	1.89	1.57	2.02	3.08
[4], days in culture: 111	1.05	1.15	1.17	0.954	0.7	1.28	0.926	1.3
[4], days in culture: 128	1.4	1.35	1.31	1.51	1.05	1.52	1.13	1.53

CTG-3D luminescence at 96 h
Conditions	12.5 pM	0.00025 µM	0.005 µM	0.1 µM	1 µM	10 µM	100 µM	625 fM
[3]	1.98	2.37	2.22	1.95	1.876	1.78	1.78	2.32
[5]	4.47	4.32	4.4	4.27	4.51	4.53	4.69	4.5
